Biological target: T1, hNLRP3 (Homo sapiens, UniProt Q96P20)
T1 construct: THP-1 cells were purchased from the American Type Culture Collection; host or cells: THP-1 cells, PMA-differentiated
Test: IL-1β production in PMA-differentiated THP-1 cells stimulated with gramicidin
Format: cell-based
Details: gramicidin 5 μM, IL-1β in supernatant
Method: Bioassay: IL-1β Production in PMA-Differentiated THP-1 Cells Stimulated with Gramicidin. Procedure 1:
Cell culture—THP-1 cells were purchased from the American Type Culture Collection and sub-cultured according to instructions from the supplier. Prior to experiments, cells were cultured in RPMI 1640 containing 10% heat inactivated FBS, penicillin (100 units/ml) and streptomycin (100 μg/ml), and maintained in log phase prior to experimental setup. Prior to the experiment THP-1 were treated with PMA (Phorbol 12-myristate 13-acetate) (10 μg/ml) for 24 hours. The day of the experiment the media was removed and attaching cells were treated with trypsin for 2 minutes, cells were then collected, washed with PBS (phosphate buffer saline), spin down, resuspended in 2% heat inactivated FBS with RPMI at a concentration of 1×10^6 cells/ml, and 100 ul was plated in a 96 well plate. Cells were incubated with compounds for 1 hours and then stimulated with Gramicidin (5 μM) (Enzo) for 2 hours. Cell free supernatant was collected and the production of IL-1β was evaluated by ELISA. Compounds were dissolved in dimethyl sulfoxide (DMSO) and added to the culture medium to achieve desired concentration (e.g. 100, 30, 10, 3, 1, 0.3 or 0.1 μM). A vehicle only control was run concurrently with each experiment. Final DMSO concentration was 1%.
THP-1 cells were purchased from the American Type Culture Collection and sub-cultured according to instructions from the supplier. Prior to experiments, cells were cultured in complete RPMI 1640 (containing 10% heat inactivated FBS, penicillin (100 units/ml) and streptomycin (100 μg/ml)), and maintained in log phase prior to experimental setup. Prior to the experiment THP-1 were treated with PMA (Phorbol 12-myristate 13-acetate) (20 ng/ml) for 16-18 hours. On the day of the experiment the media was removed and adherent cells were detached with trypsin for 5 minutes. Cells were then harvested, washed with complete RPMI 1640, spun down, resuspended in RPMI 1640 (containing 2% heat inactivated FBS, penicillin (100 units/ml) and streptomycin (100 μg/ml). The cells were plated in a 384-well plate at a density of 50,000 cells/well (final assay volume 50 μl). Compounds were dissolved in dimethyl sulfoxide (DMSO) and added to the culture medium to achieve desired concentration (e.g. 100, 33, 11, 3.7, 1.2, 0.41, 0.14, 0.046, 0.015, 0.0051, 0.0017 μM). Cells were incubated with compounds for 1 hour and then stimulated with gramicidin (5 μM) (Enzo) for 2 hours. Cell free supernatant was collected and the production of IL-1β was evaluated by HTRF (cisbio). A vehicle only control was run concurrently with each experiment. Final DMSO concentration was 0.38%.

T1 sequence (Q96P20 whole entry): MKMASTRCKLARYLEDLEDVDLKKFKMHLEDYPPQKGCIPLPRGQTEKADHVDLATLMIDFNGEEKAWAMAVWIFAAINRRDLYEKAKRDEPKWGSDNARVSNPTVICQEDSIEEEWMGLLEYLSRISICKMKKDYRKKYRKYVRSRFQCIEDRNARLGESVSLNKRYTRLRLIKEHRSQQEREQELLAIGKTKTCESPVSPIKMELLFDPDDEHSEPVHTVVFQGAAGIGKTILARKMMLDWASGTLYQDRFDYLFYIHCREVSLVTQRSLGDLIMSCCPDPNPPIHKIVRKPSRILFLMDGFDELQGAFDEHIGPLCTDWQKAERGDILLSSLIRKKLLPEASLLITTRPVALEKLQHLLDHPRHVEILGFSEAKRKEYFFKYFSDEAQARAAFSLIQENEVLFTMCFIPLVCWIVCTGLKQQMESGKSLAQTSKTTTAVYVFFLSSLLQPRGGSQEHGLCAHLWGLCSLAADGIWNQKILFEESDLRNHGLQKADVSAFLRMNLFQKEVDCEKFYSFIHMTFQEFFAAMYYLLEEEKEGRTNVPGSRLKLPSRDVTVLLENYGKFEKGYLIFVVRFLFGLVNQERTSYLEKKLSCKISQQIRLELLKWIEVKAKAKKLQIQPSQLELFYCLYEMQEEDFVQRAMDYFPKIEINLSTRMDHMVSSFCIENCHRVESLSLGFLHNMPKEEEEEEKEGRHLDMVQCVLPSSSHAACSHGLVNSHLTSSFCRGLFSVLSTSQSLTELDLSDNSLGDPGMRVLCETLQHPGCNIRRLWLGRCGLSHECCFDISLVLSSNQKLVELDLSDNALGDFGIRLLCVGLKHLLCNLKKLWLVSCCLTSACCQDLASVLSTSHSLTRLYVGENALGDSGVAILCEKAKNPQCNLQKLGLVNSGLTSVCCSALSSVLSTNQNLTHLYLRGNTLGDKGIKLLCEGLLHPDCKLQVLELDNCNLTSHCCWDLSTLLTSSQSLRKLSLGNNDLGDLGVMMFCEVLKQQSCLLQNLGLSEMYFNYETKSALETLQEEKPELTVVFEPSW

| Compound | IC50 (Table 1) | IC50 (Table 2) |
| --- | --- | --- |
| CC(C)c1cc(C#N)cc(C(C)C)c1NC(=O)NS(=O)(=O)c1cc(C(C)(C)O)co1 [Compound 104, N-(4-cyano-2,6-diisopropylphenyl-carbamoyl)-4-(2-hydroxypropan-2-yl)furan-2-sulfonamide] | < 1 µM |  |
| CC(C)(O)c1coc(S(=O)(=O)NC(=O)Nc2c3c(c(C#N)c4c2CCC4)CCC3)c1 [Compound 105, N-(8-cyano-1,2,3,5,6,7-hexahydros-indacen-4-ylcarbamoyl)-4-(2-hydroxypropan-2-yl)furan-2-sulfonamide] | < 1 µM |  |
| CC(C)c1cc(F)cc(C(C)C)c1NC(=O)NS(=O)(=O)c1cc(C(C)(C)O)co1 [Compound 115, N-(4-fluoro-2,6-diisopropylphenyl-carbamoyl)-4-(2-hydroxypropan-2-yl)furan-2-sulfonamide] | < 1 µM |  |
| CC(C)c1cc(C(N)=O)cc(C(C)C)c1NC(=O)NS(=O)(=O)c1cc(C(C)(C)O)co1 [Compound 116, 4-(3-(4-(2-hydroxypropan-2-yl)furan-2-ylsulfonyl)ureido)-3,5-diisopropylbenz-amide] | 15 to 35 µM |  |
| Cc1nc(S(=O)(=O)NC(=O)Nc2c(C(C)C)ccc(Cl)c2C(C)C)sc1C(C)(C)O [Compound 149, N-(3-chloro-2,6-diisopropylphenylcarbamoyl)-5-(2-hydroxypropan-2-yl)-4-methylthiazole-2-sulfonamide] |  | 15 to 35 µM |
| Cc1nc(S(=O)(=O)NC(=O)Nc2c(C(C)C)cc(F)cc2C(C)C)sc1C(C)(C)O [Compound 152, N-(4-fluoro-2,6-diisopropylphenylcarbamoyl)-5-(2-hydroxypropan-2-yl)-4-methylthiazole-2-sulfonamide] |  | 5 to 15 µM |
| Cc1sc(S(=O)(=O)NC(=O)Nc2c(C(C)C)ccc(Cl)c2C(C)C)cc1C(C)(C)O [Compound 153, N-(3-chloro-2,6-diisopropylphenyl-carbamoyl)-4-(2-hydroxypropan-2-yl)-5-methylthiophene-2-sulfonamide] |  | 5 to 15 µM |
| Cc1sc(S(=O)(=O)NC(=O)Nc2c(C(C)C)ccc(F)c2C(C)C)cc1C(C)(C)O [Compound 154, N-(3-fluoro-2,6-diisopropylphenylcarbamoyl)-4-(2-hydroxypropan-2-yl)-5-methylthiophene-2-sulfonamide] |  | 1 to 5 µM |
| Cc1nc(S(=O)(=O)NC(=O)Nc2c(C(C)C)cc(C#N)cc2C(C)C)sc1C(C)(C)O [Compound 155] |  | 5 to 15 µM |
| CCc1cc(C#N)cc(CC)c1NC(=O)NS(=O)(=O)c1ncc(C(C)(C)O)s1 [Compound 158, N-(4-cyano-2,6-diethylphenylcarbamoyl)-5-(2-hydroxypropan-2-yl)thiazole-2-sulfonamide] |  | 1 to 5 µM |
| CCc1cc(C#N)cc(CC)c1NC(=O)NS(=O)(=O)c1cc(C(C)(C)O)cs1 [Compound 159, N-(4-cyano-2,6-diethylphenylcarbamoyl)-4-(2-hydroxypropan-2-yl)thiophene-2-sulfonamide] |  | 1 to 5 µM |
| CCc1cc(F)cc(CC)c1NC(=O)NS(=O)(=O)c1cc(C(C)(C)O)cs1 [Compound 161, N-(2,6-diethyl-4-fluorophenylcarbamoyl)-4-(2-hydroxypropan-2-yl)thiophene-2-sulfonamide] |  | 1 to 5 µM |
| CCc1ccc2c(c1NC(=O)NS(=O)(=O)c1ncc(C(C)(C)O)s1)CCC2 [Compound 165, N-(5-ethyl-2,3-dihydro-1H-inden-4-ylcarbamoyl)-5-(2-hydroxypropan-2-yl) thiazole-2-sulfonamide] |  | 1 to 5 µM |
| CCc1ccc2c(c1NC(=O)NS(=O)(=O)c1cc(C(C)(C)O)cs1)CCC2 [Compound 166, N-(5-ethyl-2,3-dihydro-1H-inden-4-ylcarbamoyl)-4-(2-hydroxypropan-2-yl)thiophene-2-sulfonamide] |  | 1 to 5 µM |
| CC(C)c1ccc(F)c(C(C)C)c1NC(=O)NS(=O)(=O)c1ncc(C2(O)CCCCC2)s1 [Compound 167, N-(3-fluoro-2,6-diisopropylphenylcarbamoyl)-5-(1-hydroxycyclohexyl) thiazole-2-sulfonamide] |  | 5 to 15 µM |
| CC(C)c1ccc(F)c(C(C)C)c1NC(=O)NS(=O)(=O)c1ncc(C2(O)CCCC2)s1 [Compound 168, N-(3-fluoro-2,6-diisopropylphenylcarbamoyl)-5-(1-hydroxycyclopentyl) thiazole-2-sulfonamide] |  | 5 to 15 µM |

Continued, values first:

| IC50 (Table 1) | IC50 (Table 2) | Compound |
| --- | --- | --- |
|  | 1 to 5 µM | CC(C)c1cncc(C(C)C)c1NC(=O)NS(=O)(=O)c1ncc(C(C)(C)O)s1 [Compound 138] |
|  | < 1 µM | CC(C)c1cc(F)cc(C(C)C)c1NC(=O)NS(=O)(=O)c1ncc(C(C)(C)O)s1 [Compound 139, N-(4-fluoro-2,6-diisopropylphenyl-carbamoyl)-5-(2-hydroxypropan-2-yl)thiazole-2-sulfonamide] |
|  | 1 to 5 µM | CC(C)c1ccc(Cl)c(C(C)C)c1NC(=O)NS(=O)(=O)c1nc(C(C)(C)O)cs1 [Compound 144, N-(3-chloro-2,6-diisopropylphenylcarbamoyl)-4-(2-hydroxypropan-2-yl) thiazole-2-sulfonamide] |
|  | 1 to 5 µM | CC(C)c1ccc(F)c(C(C)C)c1NC(=O)NS(=O)(=O)c1nc(C(C)(C)O)cs1 [Compound 145, N-(3-fluoro-2,6-diisopropylphenylcarbamoyl)-4-(2-hydroxypropan-2-yl)thiazole-2-sulfonamide] |
|  | 1 to 5 µM | CC(C)c1cc(C#N)cc(C(C)C)c1NC(=O)NS(=O)(=O)c1nc(C(C)(C)O)cs1 [Compound 146, N-(4-cyano-2,6-diisopropylphenylcarbamoyl)-4-(2-hydroxypropan-2-yl)thiazole-2-sulfonamide] |
|  | 1 to 5 µM | CC(C)c1cc(Cl)cc(C(C)C)c1NC(=O)NS(=O)(=O)c1nc(C(C)(C)O)cs1 [Compound 147, N-(4-chloro-2,6-diisopropylphenylcarbamoyl)-4-(2-hydroxypropan-2-yl)thiazole-2-sulfonamide] |
|  | 1 to 5 µM | CC(C)c1cc(F)cc(C(C)C)c1NC(=O)NS(=O)(=O)c1nc(C(C)(C)O)cs1 [Compound 148, N-(4-fluoro-2,6-diisopropylphenylcarbamoyl)-4-(2-hydroxypropan-2-yl) thiazole-2-sulfonamide] |
|  | < 1 µM | Cc1nc(S(=O)(=O)NC(=O)Nc2c(C(C)C)ccc(F)c2C(C)C)sc1C(C)(C)O [Compound 150, N-(3-fluoro-2,6-diisopropylphenylcarbamoyl)-5-(2-hydroxypropan-2-yl)-4-methylthiazole-2-sulfonamide] |
|  | 1 to 5 µM | Cc1nc(S(=O)(=O)NC(=O)Nc2c(C(C)C)cc(Cl)cc2C(C)C)sc1C(C)(C)O [Compound 151, N-(4-chloro-2,6-diisopropylphenylcarbamoyl)-5-(2-hydroxypropan-2-yl)-4-methylthiazole-2-sulfonamide] |
|  | < 1 µM | Cc1sc(S(=O)(=O)NC(=O)Nc2c(C(C)C)cc(Cl)cc2C(C)C)cc1C(C)(C)O [Compound 156, N-(4-chloro-2,6-diisopropylphenyl-carbamoyl)-4-(2-hydroxypropan-2-yl)-5-methylthiophene-2-sulfonamide] |
|  | < 1 µM | Cc1sc(S(=O)(=O)NC(=O)Nc2c(C(C)C)cc(F)cc2C(C)C)cc1C(C)(C)O [Compound 157, N-(4-fluoro-2,6-diisopropylphenyl-carbamoyl)-4-(2-hydroxypropan-2-yl)-5-methylthiophene-2-sulfonamide] |
|  | < 1 µM | Cc1sc(S(=O)(=O)NC(=O)Nc2c(C(C)C)cc(C#N)cc2C(C)C)cc1C(C)(C)O [Compound 162, N-(4-cyano-2,6-diisopropylphenyl-carbamoyl)-4-(2-hydroxypropan-2-yl)-5-methylthiophene-2-sulfonamide] |

Source: patent publication US11339136B2 (Novartis AG, priority 2016, dated 2022)
